We go through three compounds from ChEMBL document CHEMBL1125936, “Synthesis and biological evaluation of 4-purinylpyrrolidine nucleosides” (J Med Chem, 1991).

The target in experiment [1] is Adenosine deaminase (Bos taurus) (UniProt P56658). The experiment in a line: Binding affinity towards adenosine deaminase.
Experiment [2] deals with Tumor Cell line. The experiment in a line: The compound was tested for inhibitory activity against panel of human tumor cell lines; Range = 0.08-14.02 uM. It counts as functional, cell-based.
Experiment [3] relates to Human immunodeficiency virus. The experiment in a line: The compound was tested for anti-HIV activity; Range = 5.0-15.0 uM. In kind it is functional. The conditions noted are these: Human immunodeficiency virus 1; read-out: ED50 (the source's name).

Chain of Adenosine deaminase (Bos taurus) (P56658 whole entry, looked up): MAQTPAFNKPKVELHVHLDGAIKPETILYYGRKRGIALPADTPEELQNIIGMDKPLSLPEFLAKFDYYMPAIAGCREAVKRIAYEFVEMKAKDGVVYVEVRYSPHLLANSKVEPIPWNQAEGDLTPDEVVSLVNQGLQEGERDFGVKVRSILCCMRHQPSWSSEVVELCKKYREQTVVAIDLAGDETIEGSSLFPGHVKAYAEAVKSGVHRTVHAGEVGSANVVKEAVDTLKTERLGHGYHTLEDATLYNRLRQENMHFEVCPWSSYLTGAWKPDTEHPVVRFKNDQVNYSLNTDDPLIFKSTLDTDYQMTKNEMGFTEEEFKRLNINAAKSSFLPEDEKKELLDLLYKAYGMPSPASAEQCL

In turn, `Nc1ncnc2c1ncn2[C@H]1CN[C@@H](CO)C1` registered a Ki in experiment [1] of 85 µM.

As for `Cc1cn([C@@H]2C[C@H](CO)N(O)C2)c(=O)[nH]c1=O`, it took 0.08 µM to reach half-maximal inhibition in experiment [2] (IC50). On to `Nc1ncnc2c1ncn2[C@H]1CO[C@@H](CO)C1`, for which the EC50 in experiment [3] came out at 5 µM.
